Laboratory results published in patent US9708349B2, “Borates for photoactivated chemical bleaching” (GENERAL ELECTRIC COMPANY, priority 2015, dated 2017).

Experiment: Stability of solid borate on exposure to air (1HNMR)

In the case of `c1ccc(C[B-](c2ccccc2)(c2ccccc2)c2ccccc2)cc1` [MBB, monobenzyltriphenyl borate], the “time to evidence of decomposition” value is reported as < 10 min.
